Test results reported in patent US20220282217A1, “COMPOSITIONS AND METHODS FOR PREPARING T CELL COMPOSITIONS AND USES THEREOF” (priority 2019, published 2022).
Read-outs that look alike come from different tables or passages of the source. Blank lines part the entries; values can stand above or below the compound they belong to. Where a SMILES comes first, the peptide text is derived from it.

Columns and labels:
[1] = target: HLA-A02.01 (Homo sapiens, UniProt P04439, D140Y/D185E/D98H/E176V/E277Q/G131W/G231S/I119V/I121R/I166T/I218V/L300P/L318F/N151K/N90K/P208A/P217A/Q86G/Q94H/R138H/R169H/T345S); assay: Class I MHC peptide binding affinity (displacement of radiolabeled reference peptide)
In short: (§1)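 Steps: form MHCI complexes carrying labeled reference peptide; add competitor peptides at graded doses; incubate 2 days; separate complex-bound from free label by size-exclusion chromatography and count what remains bound.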

[2] = target: HLA-A01.01 (Homo sapiens, UniProt P04439, A114D/A174V/A182V/D101N/D185E/E176A/E190D/L180R/Q94H/R68K/S129P/T187R/V100A/V91M/W191G); assay: as above
In short: as §1

[3] = target: T1, HLA-A02.01 (Homo sapiens, UniProt P04439, D140Y/D185E/D98H/E176V/E277Q/G131W/G231S/I119V/I121R/I166T/I218V/N151K/N90K/P208A/P217A/Q86G/Q94H/R138H/R169H); assay: Class I MHC peptide binding stability (pMHC-I dissociation, 125I-labeled light chain); details: for Stability (T1/2 (h)): allele A02.01
T1 construct: made in house; host or cells: E. coli

[4] = target: HLA-B07.02 (Homo sapiens, UniProt P01889); assay: Class I MHC peptide binding affinity (displacement of radiolabeled reference peptide)
[5] = test system: HLA-A24.02; assay: Class I MHC peptide binding stability (pMHC-I dissociation, 125I-labeled light chain); design: species or system human; details: for Stability (T1/2 (h)): allele A24.02
[6] = target: HLA-A24.02; assay: Class I MHC peptide binding affinity (displacement of radiolabeled reference peptide); design: species or system human
[7] = target: HLA-A03.01 (Homo sapiens, UniProt P04439); assay: as above; details: allele A03.01; read-out: Observed Affinity (IC50; (nM))
[8] = Observed Affinity (IC50, (nM)), allele A01.01
[9] = allele A02.01, read-out: Observed Affinity (IC50, (nM))
[10] = allele A01.01, read-out: Observed Affinity (IC50, (nM))
[11] = allele A24.02, read-out: Observed Affinity (IC50, (nM))

Compound: CC[C@H](C)[C@H](NC(=O)[C@H](CC(C)C)NC(=O)[C@H](CCC(N)=O)NC(=O)[C@@H](NC(=O)[C@@H](NC(=O)[C@H](CO)NC(=O)[C@@H](NC(=O)[C@H](CC(C)C)NC(=O)[C@@H](N)CS)[C@@H](C)O)[C@@H](C)O)C(C)C)C(=O)N[C@@H](CCSC)C(=O)O
Kd [1]: 537 nM
IC50 ([1]; Observed Affinity (IC50, (nM)), allele A02.01): 716 nM
Kd [2]: 8280 nM
IC50 [2, 8]: 11000 nM

Compound: CC[C@H](C)[C@H](N)C(=O)N[C@@H](CC(C)C)C(=O)N[C@@H](CC(=O)O)C(=O)N[C@H](C(=O)N[C@@H](C)C(=O)NCC(=O)N[C@@H](Cc1c[nH]cn1)C(=O)N[C@@H](CCC(=O)O)C(=O)N[C@@H](CCC(=O)O)C(=O)N[C@@H](Cc1ccc(O)cc1)C(=O)O)[C@@H](C)O (H-ILDTAGHEEY-OH; N-terminus and C-terminus assumed)
IC50 [2, 8]: 64.2 nM

Compound: CSCC[C@H](NC(=O)[C@H](CCC(=O)O)NC(=O)[C@H](CCCNC(=N)N)NC(=O)[C@H](CC(C)C)NC(=O)[C@H](Cc1ccc(O)cc1)NC(=O)[C@H](CC(N)=O)NC(=O)[C@H](CC(C)C)NC(=O)[C@H](CC(C)C)NC(=O)[C@@H](N)CO)C(=O)O
Stability (half-life (hr.)) ([3]; BTK C481S peptide, HLA Allele A02.01): 182.6 min
Stability (T1/2 (h)) [3]: 3 h
IC50 ([4]; BTK C481S peptide, HLA Allele B07.02, read-out: Affinity): 866 nM
IC50 ([1]; BTK C481S peptide, HLA Allele A02.01, read-out: Affinity): 67.7 nM
IC50 [1, 9]: 87 nM

Compound: CC[C@H](C)[C@H](N)C(=O)N[C@@H](CC(C)C)C(=O)N[C@@H](CC(=O)O)C(=O)N[C@H](C(=O)N[C@@H](C)C(=O)NCC(=O)N[C@@H](CCCNC(=N)N)C(=O)N[C@@H](CCC(=O)O)C(=O)N[C@@H](CCC(=O)O)C(=O)N[C@@H](Cc1ccc(O)cc1)C(=O)O)[C@@H](C)O (H-ILDTAGREEY-OH; N-terminus and C-terminus assumed)
IC50 [2, 8]: 7 nM

Compound: CC[C@H](C)[C@H](NC(=O)[C@H](CCCCN)NC(=O)[C@H](Cc1ccc(O)cc1)NC(=O)[C@@H](NC(=O)[C@@H](NC(=O)[C@H](CC(=O)O)NC(=O)[C@H](CO)NC(=O)[C@@H](N)CCSC)[C@@H](C)O)[C@@H](C)O)C(=O)N[C@@H](Cc1ccc(O)cc1)C(=O)O (H-MSDTTYKIY-OH; N-terminus and C-terminus assumed)
IC50 [2]: 10.2 nM

Compound: CC[C@H](C)[C@H](NC(=O)[C@@H]1CCCN1C(=O)[C@H](CC(C)C)NC(=O)[C@H](Cc1ccccc1)NC(=O)[C@H](CC(C)C)NC(=O)[C@H](CO)NC(=O)[C@H](CC(=O)O)NC(=O)[C@@H](NC(=O)[C@H](CC(C)C)NC(=O)[C@@H](N)CCSC)[C@@H](C)O)C(=O)O
Stability (T1/2 (h)) [3]: 1 h
IC50 [2, 10]: 7670 nM

Compound: CC[C@H](C)[C@H](N)C(=O)N[C@@H](CC(C)C)C(=O)N[C@@H](CC(=O)O)C(=O)N[C@H](C(=O)N[C@@H](C)C(=O)NCC(=O)N[C@@H](CC(C)C)C(=O)N[C@@H](CCC(=O)O)C(=O)N[C@@H](CCC(=O)O)C(=O)N[C@@H](Cc1ccc(O)cc1)C(=O)O)[C@@H](C)O (H-ILDTAGLEEY-OH; N-terminus and C-terminus assumed)
IC50 [2, 8]: 8.6 nM

Compound: CC[C@H](C)[C@H](NC(=O)[C@H](CCCCN)NC(=O)[C@H](Cc1ccc(O)cc1)NC(=O)[C@@H](NC(=O)[C@@H](NC(=O)[C@H](CC(=O)O)NC(=O)[C@H](CO)NC(=O)[C@H](CCSC)NC(=O)[C@@H](N)C(C)C)[C@@H](C)O)[C@@H](C)O)C(=O)N[C@@H](Cc1ccc(O)cc1)C(=O)O (H-VMSDTTYKIY-OH; N-terminus and C-terminus assumed)
IC50 [2]: 376 nM

Compound: CC(C)C[C@H](NC(=O)[C@H](CC(C)C)NC(=O)[C@H](CC(C)C)NC(=O)[C@H](CC(=O)O)NC(=O)[C@H](CO)NC(=O)[C@H](CC(C)C)NC(=O)[C@@H]1CCCN1C(=O)[C@@H](NC(=O)[C@@H](N)C(C)C)C(C)C)C(=O)O (H-VVPLSDLLL-OH; N-terminus and C-terminus assumed)
Stability (T1/2 (h)) [5]: 0.5 h
IC50 [6, 11]: 8250 nM
IC50 [1, 9]: 2550 nM

Compound: CSCC[C@H](NC(=O)[C@H](CC(C)C)NC(=O)[C@H](CCC(N)=O)NC(=O)[C@@H](N)CCSC)C(=O)N1CCC[C@H]1C(=O)N[C@@H](Cc1ccccc1)C(=O)NCC(=O)N[C@@H](CS)C(=O)N[C@@H](CC(C)C)C(=O)O
Stability (half-life (hr.)) ([3]; EGFR T790M peptides, HLA allele A02.01): 22.1 min
Stability (T1/2 (h)) [3]: 0.4 h
Kd ([4]; EGFR T790M peptides, HLA allele B07.02): 1590 nM
Kd ([1]; EGFR T790M peptides, HLA allele A02.01, read-out: Affinity): 116 nM
IC50 [1, 9]: 166 nM

Compound: CC(C)C[C@H](NC(=O)[C@H](CC(C)C)NC(=O)[C@H](CC(C)C)NC(=O)[C@H](CC(=O)O)NC(=O)[C@H](CS)NC(=O)[C@H](CC(C)C)NC(=O)[C@@H]1CCCN1C(=O)[C@@H](NC(=O)[C@@H](N)C(C)C)C(C)C)C(=O)O (H-VVPLCDLLL-OH; N-terminus and C-terminus assumed)
Stability (T1/2 (h)) [5]: 0.4 h
IC50 [6, 11]: 3890 nM
IC50 [1, 9]: 1200 nM

Compound: CSCC[C@H](NC(=O)[C@H](CCC(=O)O)NC(=O)[C@H](CC(C)C)NC(=O)[C@H](CC(C)C)NC(=O)[C@H](CC(C)C)NC(=O)CNC(=O)[C@H](Cc1ccc(O)cc1)NC(=O)[C@H](CC(C)C)NC(=O)[C@@H]1CCCN1)C(=O)N[C@@H](CC(C)C)C(=O)O (H-PLYGLLLEML-OH; N-terminus and C-terminus assumed)
Stability (T1/2 (h)) [5]: 6.3 h
IC50 [6, 11]: 444 nM
IC50 [1, 9]: 797 nM

Continued, values first:

Stability (T1/2 (h)) [3]: 0.4 h
IC50 [1, 9]: 40 nM
IC50 [2, 10]: 14400 nM
Compound: CC[C@H](C)[C@H](NC(=O)[C@H](CC(=O)O)NC(=O)[C@H](Cc1ccccc1)NC(=O)[C@H](CC(C)C)NC(=O)[C@@H](NC(=O)[C@H](CCC(=O)O)NC(=O)[C@@H](NC(=O)[C@H](CCSC)NC(=O)[C@@H](N)Cc1c[nH]c2ccccc12)[C@@H](C)O)[C@@H](C)O)C(=O)N[C@H](C(=O)O)C(C)C (H-WMTETLFDIV-OH; N-terminus and C-terminus assumed)

IC50 [2, 10]: 10.5 nM
Compound: C[C@H](NC(=O)[C@H](CC(N)=O)NC(=O)[C@@H](NC(=O)[C@@H](NC(=O)[C@@H](N)Cc1ccc(O)cc1)[C@@H](C)O)[C@@H](C)O)C(=O)N[C@@H](Cc1ccccc1)C(=O)N[C@@H](CO)C(=O)NCC(=O)N[C@@H](CCC(=O)O)C(=O)N[C@@H](Cc1ccc(O)cc1)C(=O)O (H-YTTNAFSGEY-OH; N-terminus and C-terminus assumed)

Stability (half-life (hr.)) ([5]; BTK C481S peptide, HLA Allele A24.02): 343 min
IC50 ([6]; BTK C481S peptide, HLA Allele A24.02, read-out: Affinity): 4.96 nM
IC50 [6, 11]: 5 nM
Compound: CSCC[C@H](NC(=O)[C@H](Cc1ccc(O)cc1)NC(=O)[C@@H](N)CCC(=O)O)C(=O)N[C@@H](C)C(=O)N[C@@H](CC(N)=O)C(=O)NCC(=O)N[C@@H](CO)C(=O)N[C@@H](CC(C)C)C(=O)N[C@@H](CC(C)C)C(=O)O (H-EYMANGSLL-OH; N-terminus and C-terminus assumed)

IC50 [7]: 2710 nM
IC50 [2, 10]: 987 nM
Compound: CC(C)C[C@H](NC(=O)[C@H](Cc1ccccc1)NC(=O)[C@H](CO)NC(=O)[C@H](CC(C)C)NC(=O)[C@@H](N)CS)C(=O)N[C@@H](CO)C(=O)N[C@@H](CO)C(=O)N[C@@H](Cc1c[nH]c2ccccc12)C(=O)N[C@@H](CC(=O)O)C(=O)N[C@@H](Cc1ccc(O)cc1)C(=O)O (H-CLSFLSSWDY-OH; N-terminus and C-terminus assumed)

IC50 [2, 10]: 15500 nM
Compound: CC(C)[C@H](NC(=O)[C@H](CCC(=O)O)NC(=O)[C@H](CC(N)=O)NC(=O)[C@H](CO)NC(=O)CNC(=O)[C@@H](N)[C@@H](C)O)C(=O)N[C@H](C(=O)N[C@H](C(=O)N[C@@H](CCCNC(=N)N)C(=O)N[C@@H](Cc1ccc(O)cc1)C(=O)O)[C@@H](C)O)[C@@H](C)O (H-TGSNEVTTRY-OH; N-terminus and C-terminus assumed)

IC50 [2, 10]: 606 nM
Compound: CC(C)[C@H](NC(=O)[C@H](CCC(=O)O)NC(=O)[C@H](CC(N)=O)NC(=O)[C@H](CO)NC(=O)CN)C(=O)N[C@H](C(=O)N[C@H](C(=O)N[C@@H](CCCNC(=N)N)C(=O)N[C@@H](Cc1ccc(O)cc1)C(=O)O)[C@@H](C)O)[C@@H](C)O (H-GSNEVTTRY-OH; N-terminus and C-terminus assumed)

IC50 [2, 10]: 52.9 nM
Compound: CC(C)C[C@H](NC(=O)[C@H](Cc1ccccc1)NC(=O)[C@H](CO)NC(=O)[C@@H](N)CC(C)C)C(=O)N[C@@H](CO)C(=O)N[C@@H](CO)C(=O)N[C@@H](Cc1c[nH]c2ccccc12)C(=O)N[C@@H](CC(=O)O)C(=O)N[C@@H](Cc1ccc(O)cc1)C(=O)O (H-LSFLSSWDY-OH; N-terminus and C-terminus assumed)

IC50 [2, 10]: 4.4 nM
Compound: C[C@H](NC(=O)[C@H](CC(N)=O)NC(=O)[C@@H](NC(=O)[C@@H](N)[C@@H](C)O)[C@@H](C)O)C(=O)N[C@@H](Cc1ccccc1)C(=O)N[C@@H](CO)C(=O)NCC(=O)N[C@@H](CCC(=O)O)C(=O)N[C@@H](Cc1ccc(O)cc1)C(=O)O (H-TTNAFSGEY-OH; N-terminus and C-terminus assumed)
